Assay results reported in patent US20240350469A1, “TREATMENT OF LOWER RESPIRATORY TRACT INFECTION WITH TRADIPITANT” (Vanda Pharmaceuticals Inc., priority 2021, published 2024).

System: severe or critical COVID-19 infection
Test: Randomized, double-blind, placebo-controlled study of tradipitant in hospitalized patients with COVID-19 pneumonia (interim analysis, ITT)
Assay type: in vivo
Details: for Ordinal Score at Day 7 = 7 (Not hospitalized), no. of patients / Ordinal Score at Day 28 = 1 (Death), % of patients / Ordinal Score at Day 28 = 1 (Death), no. of patients / Ordinal Score at Day 28 = 2 (Hospitalized, on invasive mechanical ventilation or ECMO), % of patients / Ordinal Score at Day 28 = 2 (Hospitalized, on invasive mechanical ventilation or ECMO), no. of patients / Ordinal Score at Day 28 = 3 (Hospitalized, on non-invasive ventilation or high flow oxygen devices), % of patients / Ordinal Score at Day 28 = 3 (Hospitalized, on non-invasive ventilation or high flow oxygen devices), no. of patients / Ordinal Score at Day 28 = 4 (Hospitalized, requiring supplemental oxygen), % of patients / Ordinal Score at Day 28 = 4 (Hospitalized, requiring supplemental oxygen), no. of patients / Ordinal Score at Day 28 = 7 (Not hospitalized), % of patients / Ordinal Score at Day 28 = 7 (Not hospitalized), no. of patients / No. of deaths by day 7 / No. of deaths by day 28 / Ordinal Score at Day 7 = 1 (Death), % of patients / Ordinal Score at Day 7 = 1 (Death), no. of patients / Ordinal Score at Day 7 = 2 (Hospitalized, on invasive mechanical ventilation or ECMO), % of patients / Ordinal Score at Day 7 = 2 (Hospitalized, on invasive mechanical ventilation or ECMO), no. of patients / Ordinal Score at Day 7 = 3 (Hospitalized, on non-invasive ventilation or high flow oxygen devices), % of patients / Ordinal Score at Day 7 = 3 (Hospitalized, on non-invasive ventilation or high flow oxygen devices), no. of patients / Ordinal Score at Day 7 = 4 (Hospitalized, requiring supplemental oxygen), % of patients / Ordinal Score at Day 7 = 4 (Hospitalized, requiring supplemental oxygen), no. of patients / Ordinal Score at Day 7 = 5 (Hospitalized, not requiring supplemental oxygen), % of patients / Ordinal Score at Day 7 = 5 (Hospitalized, not requiring supplemental oxygen), no. of patients / Ordinal Score at Day 7 = 7 (Not hospitalized), % of patients: ITT
[1] = ordinal score at baseline 3, tradipitant N = 13
[2] = ordinal score at baseline 4, tradipitant N = 9

O=C(c1ccccc1Cl)c1cccnc1-c1nnn(Cc2cc(C(F)(F)F)cc(C(F)(F)F)c2)c1-c1ccncc1 [Tradipitant]
Ordinal Score at Day 7 = 7 (Not hospitalized), no. of patients [1]: 1 | Ordinal Score at Day 28 = 1 (Death), % of patients [1]: (7.7) % | Ordinal Score at Day 28 = 1 (Death), no. of patients [1]: 1 | Ordinal Score at Day 28 = 2 (Hospitalized, on invasive mechanical ventilation or ECMO), % of patients [1]: (61.5) % | Ordinal Score at Day 28 = 2 (Hospitalized, on invasive mechanical ventilation or ECMO), no. of patients [1]: 8 | Ordinal Score at Day 28 = 3 (Hospitalized, on non-invasive ventilation or high flow oxygen devices), % of patients [1]: (0.0) % | Ordinal Score at Day 28 = 3 (Hospitalized, on non-invasive ventilation or high flow oxygen devices), no. of patients [1]: 0 | Ordinal Score at Day 28 = 4 (Hospitalized, requiring supplemental oxygen), % of patients [1]: (0.0) % | Ordinal Score at Day 28 = 4 (Hospitalized, requiring supplemental oxygen), no. of patients [1]: 0 | Ordinal Score at Day 28 = 7 (Not hospitalized), % of patients [1]: (30.8) % | Ordinal Score at Day 28 = 7 (Not hospitalized), no. of patients [1]: 4 | No. of deaths by day 7 [2]: 1 | No. of deaths by day 28 [2]: 1 | Ordinal Score at Day 7 = 1 (Death), % of patients [2]: (11.1) % | Ordinal Score at Day 7 = 1 (Death), no. of patients [2]: 1 | Ordinal Score at Day 7 = 2 (Hospitalized, on invasive mechanical ventilation or ECMO), % of patients [2]: (0.0) % | Ordinal Score at Day 7 = 2 (Hospitalized, on invasive mechanical ventilation or ECMO), no. of patients [2]: 0 | Ordinal Score at Day 7 = 3 (Hospitalized, on non-invasive ventilation or high flow oxygen devices), % of patients [2]: (11.1) % | Ordinal Score at Day 7 = 3 (Hospitalized, on non-invasive ventilation or high flow oxygen devices), no. of patients [2]: 1 | Ordinal Score at Day 7 = 4 (Hospitalized, requiring supplemental oxygen), % of patients [2]: (11.1) % | Ordinal Score at Day 7 = 4 (Hospitalized, requiring supplemental oxygen), no. of patients [2]: 1 | Ordinal Score at Day 7 = 5 (Hospitalized, not requiring supplemental oxygen), % of patients [2]: (0.0) % | Ordinal Score at Day 7 = 5 (Hospitalized, not requiring supplemental oxygen), no. of patients [2]: 0 | Ordinal Score at Day 7 = 7 (Not hospitalized), % of patients [2]: (66.7) % | Ordinal Score at Day 7 = 7 (Not hospitalized), no. of patients [2]: 6 | Ordinal Score at Day 28 = 1 (Death), % of patients [2]: (11.1) % | Ordinal Score at Day 28 = 1 (Death), no. of patients [2]: 1 | Ordinal Score at Day 28 = 2 (Hospitalized, on invasive mechanical ventilation or ECMO), % of patients [2]: (0.0) % | Ordinal Score at Day 28 = 2 (Hospitalized, on invasive mechanical ventilation or ECMO), no. of patients [2]: 0 | Ordinal Score at Day 28 = 3 (Hospitalized, on non-invasive ventilation or high flow oxygen devices), % of patients [2]: (11.1) % | Ordinal Score at Day 28 = 3 (Hospitalized, on non-invasive ventilation or high flow oxygen devices), no. of patients [2]: 1 | Ordinal Score at Day 28 = 4 (Hospitalized, requiring supplemental oxygen), % of patients [2]: (0.0) % | Ordinal Score at Day 28 = 4 (Hospitalized, requiring supplemental oxygen), no. of patients [2]: 0 | Ordinal Score at Day 28 = 7 (Not hospitalized), % of patients [2]: (77.8) % | Ordinal Score at Day 28 = 7 (Not hospitalized), no. of patients [2]: 7 | No. of deaths by day 7 (overall, tradipitant N = 28): 2 | No. of deaths by day 28 (overall, tradipitant N = 28): 4 | Ordinal Score at Day 7 = 1 (Death), % of patients (overall, tradipitant N = 28): (7.1) % | Ordinal Score at Day 7 = 1 (Death), no. of patients (overall, tradipitant N = 28): 2 | Ordinal Score at Day 7 = 2 (Hospitalized, on invasive mechanical ventilation or ECMO), % of patients (overall, tradipitant N = 28): (32.1) % | Ordinal Score at Day 7 = 2 (Hospitalized, on invasive mechanical ventilation or ECMO), no. of patients (overall, tradipitant N = 28): 9 | Ordinal Score at Day 7 = 3 (Hospitalized, on non-invasive ventilation or high flow oxygen devices), % of patients (overall, tradipitant N = 28): (14.3) % | Ordinal Score at Day 7 = 3 (Hospitalized, on non-invasive ventilation or high flow oxygen devices), no. of patients (overall, tradipitant N = 28): 4 | Ordinal Score at Day 7 = 4 (Hospitalized, requiring supplemental oxygen), % of patients (overall, tradipitant N = 28): (7.1) % | Ordinal Score at Day 7 = 4 (Hospitalized, requiring supplemental oxygen), no. of patients (overall, tradipitant N = 28): 2 | Ordinal Score at Day 7 = 5 (Hospitalized, not requiring supplemental oxygen), % of patients (overall, tradipitant N = 28): (7.1) % | Ordinal Score at Day 7 = 5 (Hospitalized, not requiring supplemental oxygen), no. of patients (overall, tradipitant N = 28): 2 | Ordinal Score at Day 7 = 7 (Not hospitalized), % of patients (overall, tradipitant N = 28): (32.1) % | Ordinal Score at Day 7 = 7 (Not hospitalized), no. of patients (overall, tradipitant N = 28): 9 | Ordinal Score at Day 28 = 1 (Death), % of patients (overall, tradipitant N = 28): (14.3) % | Ordinal Score at Day 28 = 1 (Death), no. of patients (overall, tradipitant N = 28): 4 | Ordinal Score at Day 28 = 2 (Hospitalized, on invasive mechanical ventilation or ECMO), % of patients (overall, tradipitant N = 28): (28.6) % | Ordinal Score at Day 28 = 2 (Hospitalized, on invasive mechanical ventilation or ECMO), no. of patients (overall, tradipitant N = 28): 8 | Ordinal Score at Day 28 = 3 (Hospitalized, on non-invasive ventilation or high flow oxygen devices), % of patients (overall, tradipitant N = 28): (3.6) % | Ordinal Score at Day 28 = 3 (Hospitalized, on non-invasive ventilation or high flow oxygen devices), no. of patients (overall, tradipitant N = 28): 1 | Ordinal Score at Day 28 = 4 (Hospitalized, requiring supplemental oxygen), % of patients (overall, tradipitant N = 28): (0.0) % | Ordinal Score at Day 28 = 4 (Hospitalized, requiring supplemental oxygen), no. of patients (overall, tradipitant N = 28): 0 | Ordinal Score at Day 28 = 7 (Not hospitalized), % of patients (overall, tradipitant N = 28): (53.6) % | Ordinal Score at Day 28 = 7 (Not hospitalized), no. of patients (overall, tradipitant N = 28): 15 | Mortality rate (tradipitant arm, interim analysis, placebo arm 16.6%, not statistically significant): 14.2% | Patients showing clinical improvement (at least a 2 point improvement in the 7 point ordinal scale) (tradipitant arm, interim analysis, placebo arm 50%, not statistically significant): 57% | Time to improvement analysis (tradipitant vs placebo, FIG. 1, statistically significant at day 7): recover earlier than those receiving placebo
